Experiments:
[1] = molecular target: T1, ACE-2 (Homo sapiens, UniProt Q9BYF1); experiment: ACE-2 Competitive Substrate Assay (ACS Assay); type: biochemical; settings: Ki class; compounds tested in 5% DMSO, 12 concentrations; read-out: Human ACE-2 Activity
T1 construct: a stop codon inserted after the serine immediately preceding the transmembrane domain; made in house; host or cells: CHO K1 cells (transient transfection, purified from conditioned medium)

[2] = molecular target: T2, ACE (Sigma, A2580) (Sus scrofa, UniProt F1RRW5); experiment: ACE enzymatic activity assay; type: biochemical, porcine; settings: Ki class; compounds tested in 5% DMSO, 12 concentrations
T2 construct: ACE from porcine kidney; purchased Sigma A2580; host or cells: porcine kidney
T2 sequence (F1RRW5 34-1309): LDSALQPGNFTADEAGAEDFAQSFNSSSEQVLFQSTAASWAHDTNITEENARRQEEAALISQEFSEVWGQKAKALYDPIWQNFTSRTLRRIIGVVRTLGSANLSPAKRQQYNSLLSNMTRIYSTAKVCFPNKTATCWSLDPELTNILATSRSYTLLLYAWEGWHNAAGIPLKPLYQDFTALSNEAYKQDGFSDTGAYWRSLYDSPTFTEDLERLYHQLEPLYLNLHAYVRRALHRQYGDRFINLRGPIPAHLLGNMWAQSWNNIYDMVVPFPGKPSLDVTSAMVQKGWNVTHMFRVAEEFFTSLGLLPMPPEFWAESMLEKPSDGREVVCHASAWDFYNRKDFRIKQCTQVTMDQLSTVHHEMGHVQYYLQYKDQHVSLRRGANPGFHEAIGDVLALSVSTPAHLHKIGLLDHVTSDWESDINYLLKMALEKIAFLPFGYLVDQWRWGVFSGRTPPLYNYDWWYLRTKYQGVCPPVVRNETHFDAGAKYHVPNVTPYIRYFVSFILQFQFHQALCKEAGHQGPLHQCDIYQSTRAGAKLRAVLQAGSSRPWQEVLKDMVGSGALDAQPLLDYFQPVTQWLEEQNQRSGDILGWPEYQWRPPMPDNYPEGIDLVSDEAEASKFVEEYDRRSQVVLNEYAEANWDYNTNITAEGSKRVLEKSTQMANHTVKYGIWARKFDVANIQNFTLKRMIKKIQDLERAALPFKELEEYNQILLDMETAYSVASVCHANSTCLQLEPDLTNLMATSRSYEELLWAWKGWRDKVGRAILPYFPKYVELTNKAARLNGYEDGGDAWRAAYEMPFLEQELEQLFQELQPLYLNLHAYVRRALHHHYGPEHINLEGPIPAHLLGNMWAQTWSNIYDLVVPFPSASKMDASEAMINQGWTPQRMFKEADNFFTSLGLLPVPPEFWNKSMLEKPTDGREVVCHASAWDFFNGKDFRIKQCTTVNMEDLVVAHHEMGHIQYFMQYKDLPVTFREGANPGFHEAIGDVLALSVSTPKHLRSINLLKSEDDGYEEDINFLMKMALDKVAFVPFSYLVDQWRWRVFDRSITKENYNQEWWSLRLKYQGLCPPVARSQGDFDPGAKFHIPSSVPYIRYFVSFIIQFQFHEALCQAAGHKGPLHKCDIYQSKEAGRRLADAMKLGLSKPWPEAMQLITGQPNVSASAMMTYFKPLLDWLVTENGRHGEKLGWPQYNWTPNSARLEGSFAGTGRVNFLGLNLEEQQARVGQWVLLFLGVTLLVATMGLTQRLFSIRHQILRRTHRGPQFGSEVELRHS
Procedure: ACE (Sigma, A2580) enzymatic activity was assayed in microtiter plates using the following protocol. ACE assay buffer was made from 50 mM HEPES (Sigma), 300 mM sodium chloride (Sigma), and 0.01% Brij-35 (Pierce Chemical Co) at pH 7.5.
Reactions were mixed and incubated at 25° C. Enzymatic cleavage of the substrate is marked by a fluorescence change (excitation 330 nm, emission 415 nm).
The activity of the test compounds was investigated using the procedure outlined above. The compounds were tested in 5% DMSO. Enzyme activity was measured at 12 compound concentrations. […]. […]

[3] = molecular target: T3, Carboxypeptidase A (Bos taurus, UniProt P00730); experiment: Carboxypeptidase A activity assay; type: biochemical; settings: Ki class; compounds tested in 5% DMSO, 12 concentrations
T3 sequence (P00730 111-419): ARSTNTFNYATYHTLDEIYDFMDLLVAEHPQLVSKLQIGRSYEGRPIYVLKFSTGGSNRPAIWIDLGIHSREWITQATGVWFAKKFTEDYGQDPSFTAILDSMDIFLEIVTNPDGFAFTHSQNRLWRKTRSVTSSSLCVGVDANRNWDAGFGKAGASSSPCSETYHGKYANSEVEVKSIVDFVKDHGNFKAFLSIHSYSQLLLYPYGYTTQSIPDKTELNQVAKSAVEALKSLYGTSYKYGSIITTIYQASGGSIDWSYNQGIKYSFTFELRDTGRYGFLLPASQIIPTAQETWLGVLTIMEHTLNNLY
Procedure: Carboxypeptidase A activity was measured using a literature assay (Holmquist and Riordan, “Carboxypeptidase A,” Methods of Enzymatic Analysis (1984) p. 44–60). The assay was adapted to a 96 well format by adjusting to a 300 μL assay volume and using ultra-thin bottom plates (Costar/Corning) read at 328 nm. The assay was stopped using EDTA.
The activity of the test compounds was investigated using the procedure outlined above. The compounds were tested in 5% DMSO. Enzyme activity was measured at 12 compound concentrations. The Ki was calculated by using Ki=Kiapp/(1+[S]/Km).
To determine whether a test compound is capable of modulating carboxypeptidase A's ability to cleave a substrate the method described in Holmquist and Riordan, Carboxypeptidase A, p44–60, Peptidase and Their Inhibitors in Method of Enzymatic Analysis (1984), may be used.
The assay may be adapted to a 96 well format by adjusting to a 300 μl assay volume and using ultrathin bottom plates (Costar/Coming) read at 328 nm with a final assay volume of 300 μl. The assay may be stopped using EDTA.

T1 sequence (Q9BYF1 18-740 limits assumed): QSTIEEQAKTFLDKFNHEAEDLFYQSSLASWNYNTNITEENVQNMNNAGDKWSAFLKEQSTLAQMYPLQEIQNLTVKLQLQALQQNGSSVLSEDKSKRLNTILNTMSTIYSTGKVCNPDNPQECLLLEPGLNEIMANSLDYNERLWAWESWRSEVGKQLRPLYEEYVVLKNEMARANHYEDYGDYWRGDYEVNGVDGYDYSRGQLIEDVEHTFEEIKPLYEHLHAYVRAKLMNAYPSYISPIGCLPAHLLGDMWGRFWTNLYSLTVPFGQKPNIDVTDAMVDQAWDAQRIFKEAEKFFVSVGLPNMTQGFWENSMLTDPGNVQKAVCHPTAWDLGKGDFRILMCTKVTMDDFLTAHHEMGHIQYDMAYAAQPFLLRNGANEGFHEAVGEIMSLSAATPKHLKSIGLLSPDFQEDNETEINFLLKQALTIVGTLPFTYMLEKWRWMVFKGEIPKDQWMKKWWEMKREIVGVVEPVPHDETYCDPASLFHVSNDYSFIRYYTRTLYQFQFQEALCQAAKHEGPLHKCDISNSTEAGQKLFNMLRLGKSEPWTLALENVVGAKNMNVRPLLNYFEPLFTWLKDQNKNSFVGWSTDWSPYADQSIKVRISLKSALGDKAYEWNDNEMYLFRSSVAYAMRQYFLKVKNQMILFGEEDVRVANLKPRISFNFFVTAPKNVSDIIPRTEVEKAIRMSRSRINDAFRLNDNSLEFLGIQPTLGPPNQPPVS

Compound	Ki [1] [µM]	Ki [2] [µM]	Ki [3] [µM]
CC(C)C[C@H](NC(C(=O)O)c1ccc(C(F)(F)F)cc1)C(=O)O (stereo in doubt) [AR, 2-{[Carboxy-(4-trifluoromethyl-phenyl)-methyl]-amino}-4-methyl-pentanoic acid]	> 0.5	> 50	> 50
O=C(O)C(Cc1ccccc1)N[C@@H](Cc1cnc[nH]1)C(=O)O (stereo partly drawn) [EK, 2-(1-Carboxy-2-phenyl-ethylamino)-3-(3H-imidazol-4-yl)-propionicacid]	> 0.5	10 to 50	10 to 50
CC(C)C[C@H](NCCCc1ccccc1)C(=O)O [CY, 4-Methyl-2-(3-phenyl-propylamino)-pentanoicacid]	> 0.5	> 50	> 50
CCC(NC(Cc1c[nH]c2ccccc12)C(=O)O)C(=O)O (stereo not drawn) [W, 2-[1-Carboxy-2-(1H-indol-3-yl)-ethylamino]-butync acid]	> 0.5	> 50	> 50
CCCC(N[C@H](Cc1c[nH]c2ccccc12)C(=O)O)C(=O)O (stereo partly drawn) [X, 2-[1-Carboxy-2-(1H-indol-3-yl)-ethylamino]-pentanoic acid]	> 0.5	> 50	> 50
CC(C)CC(N[C@@H](Cc1cncn1COCc1ccccc1)C(=O)NCCc1ccccc1)C(=O)O (single isomer, unassigned) [FM, 2-[2-(3-Benzyloxymethyl-3H-imidazol-4-yl)-1-phenethylcarbamoyl-ethylamino]-4-methyl-pentanoic acid]	> 0.5	> 50	> 50
CC(C)CCNC(CCc1ccccc1)C(=O)O (stereo not drawn) [DR, 2-(3-Methyl-butylamino)-4-phenyl-butync acid]	> 0.5	> 50	10 to 50
CC(C)CCN[C@@H](Cc1c[nH]cn1)C(=O)O [DY, 3-(1H-Imidazol-4-yl)-2-(3-methyl-butylamino)-propionic acid]	> 0.5	> 50	> 50
CC(C)CC(N[C@H](CCc1ccccc1)CC(=O)O)C(=O)O (stereo partly drawn) [CI, 2-(1-Carboxymethyl-3-phenyl-propylamino)-4-methyl-pentanoic acid]	> 0.5	> 50	> 50
CC(N[C@@H](Cc1c[nH]cn1)C(=O)O)C(=O)O (stereo partly drawn) [N, 2-(1-Carboxy-ethylamino)-3-(1H-imidazol-4-yl)-propionic acid]	> 0.5	> 50	> 50
CC(C)C[C@H](NCC(=O)c1ccccc1)C(=O)O [DW, 4-Methyl-2-(2-oxo-2-phenyl-ethylamino)-pentanoic acid]	> 0.5	> 50	< 10
CC(C)C[C@H](NC(=O)NCc1ccccc1)C(=O)O [DU, 2-(3-Benzyl-ureido)-4-methyl-pentanoic acid]	> 0.5	> 50	10 to 50
CC(N[C@@H](Cc1c[nH]c2ccccc12)C(=O)O)C(=O)O (stereo partly drawn) [AG, 2-(1-Carboxy-ethylamino)-3-(1H-indol-3-yl)-propionic acid]	> 0.5	> 50	> 50

Next, values leading:

Ki [1] [µM]	Ki [2] [µM]	Ki [3] [µM]	Compound
> 0.5	> 50	> 50	CC(C)CC(N[C@@H](Cc1cncn1COCc1ccccc1)C(N)=O)C(=O)O (single isomer, unassigned) [FB, 2-[2-(3-Benzyloxymethyl-3H-imidazol-4-yl)-1-carbamoyl-ethylamino]-4-methyl-pentanoic acid]
> 0.5	> 50	> 50	COc1ccc(C#CC[C@H](N[C@@H](CCc2ccccc2)C(=O)O)C(=O)O)cc1 [FR, 2-(1-Carboxy-3-phenyl-propylamino)-5-(4-methoxy-phenyl)-pent-4-ynoic acid]
> 0.5	> 50	> 50	COC(=O)[C@H](CC(C)C)NC(=O)NCc1ccccc1 [DF, 2-(3-Benzyl-ureido)-4-methyl-pentanoic acidmethyl ester]
> 0.5	> 50	< 10	CC(C)C[C@H](NC(=O)NCCc1ccccc1)C(=O)O [DV, 4-Methyl-2-(3-phenethyl-ureido)-pentanoic acid]
> 0.5	> 50	> 50	CC(C)CC(N[C@@H](CNc1ccccc1)C(=O)O)C(=O)O (single isomer, unassigned) [FI, 2-(1-Carboxy-2-phenylamino-ethylamino)-4-methyl-pentanoic acid]
> 0.5	> 50	> 50	CC(C)C[C@@H](N[C@H](Cc1cscn1)C(=O)O)C(=O)O [CO, 2-(1-Carboxy-2-thiazol-4-yl-ethylamino)-4-methyl-pentanoic acid]
> 0.5	> 50	> 50	CC(C)C[C@H](N[C@H](CCc1ccccc1)C(=O)O)C(N)=O [DC, 2-(1-Carbamoyl-3-methyl-butylamino)-4-phenyl-butync acid]
> 0.5	> 50	> 50	O=C(O)[C@H](NC1(C(=O)O)CCCCC1)c1ccccc1 [BY, 1-[(Carboxy-phenyl-methyl)-amino]-cyclohexanecarboxylic acid]
> 0.5	> 50	> 50	O=C(O)C(CCc1ccccc1)N1CCC[C@H]1C(=O)O (stereo in doubt) [AC, 1-(1-Carboxy-3-phenyl-propyl)-pyrrolidine-2-carboxylic acid]
> 0.5	> 50	> 50	CC(C)CC(N[C@H](CCc1ccccc1)C(=O)O)C(=O)O (stereo partly drawn) [CM, 2-(1-Carboxy-3-phenyl-propylamino)-4-methyl-pentanoic acid]
> 0.5	> 50	> 50	CC(C)C[C@@H](C(=O)O)N(C)C(CCc1ccccc1)C(=O)O (stereo partly drawn) [V, 2-[(1-Carboxy-3-phenyl-propyl)-methyl-amino]-4-methyl-pentanoic acid]
> 0.5	> 50	> 50	Cc1ccc(C[C@H](CC(=O)O)NC(CC(C)C)C(=O)O)cc1 (stereo partly drawn) [CS, 2-[2-Carboxy-1-(4-methyl-benzyl)-ethylamino]-4-methyl-pentanoic acid]
> 0.5	> 50	> 50	CC(=O)N(C(CCc1ccccc1)C(=O)O)[C@@H](CC(C)C)C(=O)O (single isomer, unassigned) [AT, 2-[Acetyl-(1-carboxy-3-phenyl-propyl)-amino]-4-methyl-pentanoic acid]

— patent US7045532B2 (Millennium Pharmaceuticals, Inc., priority 1999, dated 2006)
